Marks after values point to notes of the source that are not given here.

One test has as its system Human - sedentary. Conditions: 3 grams HCA as the free acid equivalent; cited from earlier work.
A further test concerns Male Wistar rats. Conditions: equivalent to 2,170 mg HCA free acid; cited from earlier work.
The subject of test [1] is Human morbidly obese diabetics. Conditions: published literature, U.S. Pat. No. 6,207,714; cited from earlier work.
Test [2] relates to streptozotocin (STZ)-induced diabetes. In words: Pilot animal streptozotocin-induced diabetes trial, blood glucose by glucometer. Conditions: STD Herbal 250 mg/kg. The test is classed as in vivo, male Wistar albino rats. As to the method: The synergism of the formula is reflected in findings in an animal trial of induced diabetes treated with Metformin. To produce streptozotocin (STZ)-induced diabetes in experimental rats, male Wistar albino rats of 12 weeks age were allowed to fast 24 hrs prior to injection with freshly prepared STZ in citrate buffer […] (45 mg/kg, i.p). […] However, an additional arm of similarly-induced diabetic rats that were older and much sicker was added to test the herbal mixture prepared to produce the relative percentages of each ingredient as in Example 1 given above, here termed “STD Herbal.” After an overnight fast, the samples suspended in 5% gum acacia were fed by gastric intubations with a syringe. […] The blood glucose level was determined by using an electronic glucometer (Accu Check, Roche Diagnostic) and the results are tabulated in table 4. n=6 animals in each group. Parenthesis value indicate percentage reduction of blood sugar level; *P<0.01 compared with initial level of blood glucose (0 h) in the respective group. Data were analyzed by repeated measure ANOVA followed by Dunnett test.

Test [3] has as its system Aged diabetic obese Zucker rat. Conditions: human-equivalent dose, 6:1 rat to human multiplier; cited from earlier work.

As for `O=C([O-])C[C@@](O)(C(=O)[O-])[C@H](O)C(=O)[O-].O=C([O-])C[C@@](O)(C(=O)[O-])[C@H](O)C(=O)[O-].[Ca+2].[Ca+2].[Ca+2]` [calcium salt, calcium salt of (−)-hydroxycitric acid], the “efficacy in reducing blood glucose” value in the test on Human - sedentary was “ineffective”.

As to “potassium salt of (−)-hydroxycitric acid”, the “efficacy in reducing blood glucose at smaller dosage” value in the test on Male Wistar rats is reported as “ineffective”. Also, the “lowest dose of HCA as free acid equivalent found efficacious in reducing blood glucose” value in test [1] is on record as 3 grams.

Take `CN(C)C(=N)N=C(N)N` [Metformin]: in test [2] (0 hr, before treatment, overnight fast, Metformin 150 mg/kg by gastric intubation, n=6, in mg/dL (unit assumed)), the “Blood glucose level, Initial (0 hr)” value was 329.2 ± 5.25. Moreover, the “percentage reduction of blood sugar level, +1 hr” value in test [2] (+1 hr vs initial (0 hr), Metformin 150 mg/kg) was “(17.49) %”. Besides, in test [2] (+1 hr, Metformin 150 mg/kg by gastric intubation, n=6, in mg/dL (unit assumed)), the “Blood glucose level, Treatment +1 hr” value amounted to 271.6 ± 4.0. The “percentage reduction of blood sugar level, +2 hr” value in test [2] (+2 hr vs initial (0 hr), Metformin 150 mg/kg) is reported as “(34.87) %”. The “Blood glucose level, Treatment +2 hr” value in test [2] (+2 hr, Metformin 150 mg/kg by gastric intubation, n=6, in mg/dL (unit assumed)) is on record as 214.4 ± 3.17*. Also, the “percentage reduction of blood sugar level, +3 hr” value in test [2] (+3 hr vs initial (0 hr), Metformin 150 mg/kg) was “(46.38) %”. The “Blood glucose level, Treatment +3 hr” value in test [2] (+3 hr, Metformin 150 mg/kg by gastric intubation, n=6, in mg/dL (unit assumed)) is on record as 176 ± 6.7*. For the same compound, the “percentage reduction of blood sugar level, +4 hr” value in test [2] (+4 hr vs initial (0 hr), Metformin 150 mg/kg) is on record as “(53.52) %”. For the same compound, the “Blood glucose level, Treatment +4 hr” value in test [2] (+4 hr, Metformin 150 mg/kg by gastric intubation, n=6, in mg/dL (unit assumed)) is on record as 153 ± 3.31*.

For “potassium-calcium salt of (−)-hydroxycitric acid”, the “lowest stand-alone dose shown to be effective, as HCA free acid equivalent” value in test [3] is recorded as 3,276 mg.

Source of the values: US20100323031A1, “Synergistic combination to enhance blood glucose and insulin metabolism” (GLYKON TECHNOLOGIES GROUP, LLC, priority 2009, published 2010).
